In patent publication US20150064794A1, “BIORELEVANT COMPOSITIONS” (PHARES PHARMACEUTICAL RESEARCH N.V., priority 2012, published 2015):
Values after ≈ are worked out from the molar mass of the structure shown.

What was measured:
[1] = medium FaSSIF-Original; Söderlind; cited from earlier work
[2] = physchem; conditions: fassif
[3] = Solubility in canine FaSSIF (FaSSIF-canine)

OCCN(CCO)c1nc(N2CCCCC2)c2nc(N(CCO)CCO)nc(N3CCCCC3)c2n1 [dipyridamole]
solubility in prior art FaSSIF-Original [1]: 19 µg/mL (≈ 37.7 µM) | solubility [2]: 75 µg/mL (≈ 149 µM)

CC(=O)N1CCN(c2ccc(OCC3COC(Cn4ccnc4)(c4ccc(Cl)cc4Cl)O3)cc2)CC1 (stereo not shown) [ketoconazole]
solubility in prior art FaSSIF-Original [1]: 26 µg/mL (≈ 48.9 µM) | solubility [3]: 84.2 µg/mL (≈ 158 µM)
